# Test results: patent US4336243A, “Transdermal nitroglycerin pad” (G. D. Searle & Co., priority 1981, dated 1982)
# Assays:
# [1] = Percutaneous absorption of C^14 nitroglycerin, neat liquid application (urinary radioactivity); type: in vivo, rhesus monkey (Macaca mulata); settings: for Percent Dose Absorbed (Mean + SEM): neat liquid
# Protocol: Studies to determine the topical availability of nitroglycerin were carried out in vivo with the rhesus monkey (Macaca mulata).
# The animals were placed in metabolism chairs for the length of time of the dose application. Urine was collected while the animals were still in the metabolism chairs. After the dose was removed, the animals were moved to a metabolism cage for continued urine collection.
# Nitroglycerin, labeled with carbon-14, was applied to the skin. The site of application can be any part of the body; however, the ventral forearm or upper part of the inner arm was used for convenience. The area of application is generally small, i.e., 2-10 cm^2; however, any area can be used. The final concentration is expressed as an amount per unit area of skin (i.e. 1.0 mg/1 cm^2).
# In the case of liquid, cream or ointment formulations, the dose was spread over the exact skin area. In the case of the pads of the present invention, they were taped to the skin. In the case of liquids, cream or ointments, the treated area was covered with aluminum foil and tape. In all cases, the tape and foil and where applicable the nitroglycerin pads were removed after 24 hours and the site of application was wiped three times with gauze soaked with ethanol, then washed with soap and water.
# Absorption is quantified on the basis of the percent of radioactivity excreted in urine for 3 days following application of a known amount of the labeled nitroglycerin to the skin. Daily urinary excretion values are collected for excretion of radioactivity by other routes and retention of radioactivity in the body by the administration of an intravenous dose of C^14 -labeled nitroglycerin according to the following formula: [formula]
# In the case of C^14 -labeled nitroglycerin applied via the nitroglycerin pad of the present invention, the device can be removed from the skin and analyzed for residual radioactivity. The amount of radioactivity which has been removed from the device, by comparative assays with devices not applid to skin, is considered to have been released in vivo during the time of skin application. Analysis for radioactivity can be conducted using any commercially available liquid scintillation counter. To determine the amount of radioactivity in this study, 1.0 ml of radioactive urine was mixed with scintillation fluid (10 ml of PCS solubilizer, Amersham Corporation, Arlington Heights, Ill.). The urine mixed with scintillant is counted for radioactivity in a liquid scintillation counter and the amount of radioactivity determined.
# [2] = Effect of added hydrophobic solvents on nitroglycerin transport and delivery; settings: miglyol oil 812 and isopropyl palmitate alone, or with mineral oil, added to the hydrophilic solvent system in the polymer matrix
smiles,measurement,setting,value
"O=[N+]([O-])OCC(CO[N+](=O)[O-])O[N+](=O)[O-] [C^14 Nitroglycerin, nitroglycerin]",Percent Dose Absorbed (Mean + SEM),"[1]; topical concentration 0.01 mg/cm^2, 24 hours",41.8 ± 3.2%
same,Percent Dose Absorbed (Mean + SEM),"[1]; topical concentration 0.1 mg/cm^2, 24 hours",43.5 ± 3.3%
same,Percent Dose Absorbed (Mean + SEM),"[1]; topical concentration 1.0 mg/cm^2, 24 hours",36.6 ± 3.7%
same,Percent Dose Absorbed (Mean + SEM),"[1]; topical concentration 7.0 mg/cm^2, 24 hours",22.6 ± 4.2%
same,Percent Dose Absorbed (Mean + SEM),"[1]; topical concentration 10.0 mg/cm^2, 24 hours",7.8 ± 0.7%
same,absorption,[1]; topical concentrations of 7 and 10 mg/cm^2,decreased absorption
same,maximum optimum dosage for good bioavailability,"[1]; topical, neat nitroglycerin",5 mg/cm^2
same,drug delivery,[2],increased
same,drug transport,[2],greatly enhanced
